Reference: PMC6934184, “Selective DNA-PKcs inhibition extends the therapeutic index of localized radiotherapy and chemotherapy” (The Journal of Clinical Investigation, 2019)

Target: T1, CDK16 (PCTK1)/cyclin Y (Homo sapiens, UniProt Q00536)
T1 construct: purchased Thermo Fisher Scientific (Life Technologies) SelectScreen
Assay: SelectScreen LanthaScreen
Type: binding
Conditions: read-out: % displacement
In short: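 Percent values come from Thermo SelectScreen profiling of NU5455, combining activity and binding assays. CSF1R was run in Z'LYTE format at Km app ATP, and CAMK1 in Adapta format with ATP listed at 10.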

T1 sequence (Q00536 whole entry): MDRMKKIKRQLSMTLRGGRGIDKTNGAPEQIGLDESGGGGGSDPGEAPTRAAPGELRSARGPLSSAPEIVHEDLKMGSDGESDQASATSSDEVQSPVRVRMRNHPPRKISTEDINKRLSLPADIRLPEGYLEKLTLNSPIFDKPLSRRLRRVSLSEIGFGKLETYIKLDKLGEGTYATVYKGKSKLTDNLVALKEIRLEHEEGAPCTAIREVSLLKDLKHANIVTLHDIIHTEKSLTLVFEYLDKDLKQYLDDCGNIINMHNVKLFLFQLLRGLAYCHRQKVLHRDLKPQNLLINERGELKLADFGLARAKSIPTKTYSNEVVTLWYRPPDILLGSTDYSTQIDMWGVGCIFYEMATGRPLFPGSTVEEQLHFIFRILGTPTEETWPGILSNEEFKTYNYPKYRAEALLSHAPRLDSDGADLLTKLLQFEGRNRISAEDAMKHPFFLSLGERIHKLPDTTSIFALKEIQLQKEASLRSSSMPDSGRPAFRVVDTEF
T1 sequence (Q8ND76 whole entry partner): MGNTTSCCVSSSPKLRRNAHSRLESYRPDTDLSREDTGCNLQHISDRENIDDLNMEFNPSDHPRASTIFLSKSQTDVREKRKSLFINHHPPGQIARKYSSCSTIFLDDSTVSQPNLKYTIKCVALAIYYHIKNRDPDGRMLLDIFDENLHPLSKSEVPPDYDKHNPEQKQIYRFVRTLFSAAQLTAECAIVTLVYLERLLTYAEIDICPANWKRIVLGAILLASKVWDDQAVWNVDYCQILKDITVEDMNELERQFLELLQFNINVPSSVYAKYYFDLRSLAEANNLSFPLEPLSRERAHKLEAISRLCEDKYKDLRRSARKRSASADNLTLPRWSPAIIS

CN(C(=O)CN1CCOCC1)c1ccc2sc3c(-c4cccc5c(=O)cc(N6CC7CCC(C6)O7)oc45)cccc3c2c1 [NU5455]
inhibition at 1 µM: 7%
